Test [1] deals with T1, PKR WT (Homo sapiens, UniProt P30613). Briefly: PKR WT enzymatic AC50 assay. The note with it: wild type PKR. It counts as biochemical. The method in brief: (§1)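 LDH-coupled NADH depletion read as A340 change at room temperature after ADP (0.22-1.65 mM) start. Compounds, tested from 100 μM final in 3-fold steps over 11 points with 1% DMSO, sat 60 min with enzyme (80-400 ng/well), PEP 0.1-0.5 mM and NADH 180 uM in Tris pH 7.5/KCl/MgCl2/DTT/BSA buffer.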

Test [2] has as its target T1, PKR WT. Briefly: PKR WT cell based AC50 assay. The note with it: wild type PKR.
The target in the next test is PKR R510Q (Homo sapiens, UniProt P30613, R510Q). Briefly: PKR Mutant Assay, AC50 against PKR R510Q. It counts as biochemical. The note with it: mutant PKR R510Q enzyme. The method in brief:
as §1

Another test concerns the target PKR R532W (Homo sapiens, UniProt P30613, R532W). Briefly: PKR Mutant Assay, AC50 against PKR R532W. The note with it: mutant PKR R532W enzyme. Format: biochemical. The method in brief:
as §1

Where only a bound is given, the exact number is not on record here.

T1 sequence (P30613 whole entry): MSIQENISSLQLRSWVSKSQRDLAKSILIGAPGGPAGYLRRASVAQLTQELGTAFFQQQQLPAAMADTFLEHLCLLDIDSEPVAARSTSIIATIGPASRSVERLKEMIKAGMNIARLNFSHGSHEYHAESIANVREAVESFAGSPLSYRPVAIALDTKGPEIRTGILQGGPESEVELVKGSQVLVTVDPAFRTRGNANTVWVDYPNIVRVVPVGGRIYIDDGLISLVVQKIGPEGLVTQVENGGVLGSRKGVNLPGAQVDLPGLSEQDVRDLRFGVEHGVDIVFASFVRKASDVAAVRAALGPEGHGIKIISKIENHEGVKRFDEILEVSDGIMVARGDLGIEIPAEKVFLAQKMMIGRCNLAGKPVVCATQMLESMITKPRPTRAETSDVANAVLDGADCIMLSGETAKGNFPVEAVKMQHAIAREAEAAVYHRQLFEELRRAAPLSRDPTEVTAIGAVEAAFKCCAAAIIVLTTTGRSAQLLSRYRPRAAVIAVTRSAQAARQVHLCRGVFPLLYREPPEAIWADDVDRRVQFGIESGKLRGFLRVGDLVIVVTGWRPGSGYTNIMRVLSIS
Sequence of PKR R532W (P30613 whole entry R532W): as the sequence (P30613 whole entry) above, with R532W counted along it
Sequence of PKR R510Q (P30613 whole entry R510Q): as the sequence (P30613 whole entry) above, with R510Q counted along it

Take `CC(C)CC1(O)CCN(C(=O)c2ccc(NS(=O)(=O)c3cccc(O)c3N)cc2)CC1` [Compound 380, 2-amino-3-hydroxy-N-(4-(4-hydroxy-4-isobutylpiperidine-1-carbonyl)phenyl)benzenesulfonamide]: the AC50 is less than 0.1 µM at PKR WT [1], less than 0.1 µM on PKR WT [2], 0.101 to 1 µM on PKR R510Q and 0.101 to 1 µM at PKR R532W.
Regarding `Nc1c(O)cccc1S(=O)(=O)Nc1ccc(C(=O)N2CCC(O)(c3ccccc3Cl)CC2)cc1` [Compound 382, 2-amino-N-(4-(4-(2-chlorophenyl)-4-hydroxypiperidine-1-carbonyl)phenyl)-3-hydroxybenzenesulfonamide], the half-maximal activity concentration (AC50) at PKR WT [1] was less than 0.1 µM; on PKR WT [2], less than 0.1 µM; at PKR R510Q, 0.101 to 1 µM; at PKR R532W, 0.101 to 1 µM.
Regarding `Cc1nc2c(S(=O)(=O)Nc3ccc(C(=O)N4CCC(O)(c5ccccc5Cl)CC4)cc3)cccc2o1` [Compound 383, N-(4-(4-(2-chlorophenyl)-4-hydroxypiperidine-1-carbonyl)phenyl)-2-methylbenzo[d]oxazole-4-sulfonamide], the AC50 was less than 0.1 µM at PKR WT [1], less than 0.1 µM at PKR WT [2], 0.101 to 1 µM on PKR R510Q and less than 0.1 µM on PKR R532W.
As to `CNc1nc2c(S(=O)(=O)Nc3ccc(C(=O)N4CCC(O)(CC(C)C)CC4)cc3)cc(Cl)cc2s1` [Compound 385, 6-chloro-N-(4-(4-hydroxy-4-isobutylpiperidine-1-carbonyl)phenyl)-2-(methylamino)benzo[d]thiazole-4-sulfonamide], the AC50 on PKR WT [1], at PKR WT [2], on PKR R510Q and at PKR R532W was less than 0.1 µM each time.
For `CC(F)(F)CCC1(O)CCN(C(=O)c2ccc(NS(=O)(=O)c3cccc4scnc34)cc2)CC1` [Compound 387, N-(4-(4-(3,3-difluorobutyl)-4-hydroxypiperidine-1-carbonyl)phenyl)benzo[d]thiazole-4-sulfonamide], the half-maximal activity concentration (AC50) was less than 0.1 µM at PKR WT [1], 0.101 to 1 µM at PKR WT [2], 0.101 to 1 µM at PKR R510Q and less than 0.1 µM at PKR R532W.
Take `CC(C)CC1(O)CCN(C(=O)c2ccc(NS(=O)(=O)c3cccc4c(O)ncnc34)cc2)CC1` [Compound 388, 4-hydroxy-N-(4-(4-hydroxy-4-isobutylpiperidine-1-carbonyl)phenyl)quinazoline-8-sulfonamide]: the AC50 at PKR WT [1], at PKR WT [2], at PKR R510Q and at PKR R532W was less than 0.1 µM throughout.
On to `O=C(c1ccc(NS(=O)(=O)c2cccc3scnc23)cc1)N1CCC(O)(CCCC(F)F)CC1` [Compound 389, N-(4-(4-(4,4-difluorobutyl)-4-hydroxypiperidine-1-carbonyl)phenyl)benzo[d]thiazole-4-sulfonamide], for which the AC50 on PKR WT [1], on PKR WT [2], on PKR R510Q and on PKR R532W was less than 0.1 µM throughout.
`C=C(CC1(O)CCN(C(=O)c2ccc(NS(=O)(=O)c3cccc4scnc34)cc2)CC1)C(F)(F)F` [Compound 390, N-(4-(4-hydroxy-4-(2-(trifluoromethyl)allyl)piperidine-1-carbonyl)phenyl)benzo[d]thiazole-4-sulfonamide]: the concentration at half-maximal activity (AC50) at PKR WT [1], on PKR WT [2], at PKR R510Q and at PKR R532W was less than 0.1 µM each time.
For `CC(CC1(O)CCN(C(=O)c2ccc(NS(=O)(=O)c3cccc4scnc34)cc2)CC1)C(F)(F)F` (stereo not shown) [Compound 391], the AC50 on PKR WT [1], on PKR WT [2], at PKR R510Q and on PKR R532W was less than 0.1 µM each time.
Consider `CC(C)CCC1(O)CCN(C(=O)c2ccc(NS(=O)(=O)c3cccc4scnc34)cc2)CC1` [Compound 392, N-(4-(4-hydroxy-4-isopentylpiperidine-1-carbonyl)phenyl)benzo[d]thiazole-4-sulfonamide], for which the AC50 on PKR WT [1], on PKR WT [2], at PKR R510Q and on PKR R532W was less than 0.1 µM throughout.
